The values that follow are results of earlier work, collected in patent US9801874B2, “Method for the preparation of liposome encapsulated vincristine for therapeutic use” (Spectrum Pharmaceuticals, Inc., priority 2012, dated 2017).

Structures are written as SMILES. Counter-ions that a name gives are not always drawn.

For this data set the following is noted: 1:1 sulfate salt, crystalline powder.

Turning to `CCC12C=CCN3CC[C@@]4(c5cc([C@@]6(C(=O)OC)CC7CN(CCc8c6[nH]c6ccccc86)C[C@](O)(CC)C7)c(OC)cc5N(C=O)[C@H]4[C@@](O)(C(=O)OC)C1OC(C)=O)C32` (stereo partly shown) [Vincristine sulfate, 22-oxovincaleukoblastine], the solubility in water entry is “soluble in water”.
